Laboratory results published in patent US20020111305A1, “Antiviral peptides” (priority 1998, published 2002).
Where no end group is shown, it is not given here.

Tests used:
[1] = system: HIV-1 III-b; assay: HIV-1 neutralization assay (syncytia-forming on MT-2 cells); type: cell-based, Human Immuno-deficiency Virus Type 1; conditions: day 21; 457 TCID50 HIV per ml; 2 hours at 37° C.; maximum 800 μg/ml
Protocol: (§1) A neutralization assay was performed on HIV-1 III-b as substantially described by Groenink M. et al., J. Virol 69, 523-527 (1995). In short, this assay comes down to the virus-neutralizing capacity of the different peptides being tested with an inoculum of 457 TCID50HIV per ml per neutralization, which is incubated at 37° C. for two hours with a twofold dilution series of the peptide for testing (maximum 800 μg/ml final concentration). The incubations are performed in a 5 mM phosphate buffer. On day 7, 14 and 21 the neutralization is assessed on the basis of the detected cytopathic effect (syncytia-forming) on MT-2 cells.

[2] = system: MT-2 cells; assay: Cytotoxicity seen in the HIV-1 neutralization assay; type: cell-based; conditions: 800 μg/ml
Protocol: as §1

[3] = system: Herpes Simplex Virus (HSV); assay: Antiviral activity against Herpes Simplex Virus (TCID50 on Vero-cells after pre-incubation with peptide); type: cell-based
Protocol: In test phials 10 μl HSV (Department of Virology Academisch Ziekenhuis Leiden (Leiden University Hospital), lab strain 96-6700 P (TCID50 10^5-10^6), was supplemented with peptide and NaPB to 200 μl. For the positive control the peptide was replaced by a human neutrophil defensin pool (HNP1-3). The test phials were subsequently incubated at 37° C. for 3 hours. Tenfold dilutions were then made in Dulbecco's Modified Eagles Medium (DMEM) with 2% foetal calf serum (FSCi). Diverse peptides, synthesized in identical manner, were used as negative control in the experiments.
Vero-cells were isolated using detachment buffer (0.25% trypsin and 0.03% EDTA in PBS), washed and brought to a concentration of 2×10^5 cells per ml DMEM +2% FCSi. In 96 wells-plates (Nunclon) 100 μl cell suspension (2×10^4 cells) was added per well. Acyclovir (ACV) was added as control to several wells about two hours (t=−2 hours) before infection. 50 μl of a dilution was added to each well at the point in time t=0.
After 3 days incubation in a CO2-stove of 37° C. the cytopathological effect (cpe) was scored by counting under the microscope and the TCID50 (tissue culture […] dose) was determined using the Reed & Muench method (Dulbecco & Ginsberg, “Virology”, JB Lippincott Co., Philadelphia, 2nd edition, 1988).
The effectiveness of peptide 10 in time was then determined. […]

Row | Sequence | neutralizing capacity: μg/ml necessary for neutralization [1] | cytotoxicity at the highest concentration [2] | activity against HSV compared with HNP, dilution series (FIG. 3) ([3]; in high concentrations) | effectiveness against HSV compared with acyclovir and HNP (FIG. 1) ([3]; peptide at sufficiently high concentrations (50 μg/ml), 3 hours at 37° C.)
1 | DSHAKRHHGYKRKFHEKHHSHRGY [his 5, reference compound] | no neutralization | – | – | –
2 | KRKFHEKHHSHRGY [dh-5, the C-terminal part of histatin 5, reference compound] | no neutralisation | – | – | –
3 | KRLFKELLFSLRKY [peptide 4] | 200 µg/mL | – | – | –
4 | LLLFLLKKRKKRKY [peptide 11, LLLFLLKKRKKRKY] | – | # peptide 11 was cytoxic at the highest concentration (800 μg/ml). | – | –
5 | KRLFKKLLFSLRKY [peptide 10] | 200 µg/mL | – | more effective than HNP | at least as effective as acyclovir and HNP
